Three compounds from US9708314B2, “Heterocyclic amide compound” (NISSAN CHEMICAL INDUSTRIES, LTD., priority 2013, dated 2017) can be followed below.

Common to all, as to assay type: in vivo
One data set relates to Monochoria vaginalis. Kind of data set: Test Example 1: herbicidal activity, application before weed generation in submerged conditions. The following applies: Application herbicide amount 320 g/ha; Seventeenth Table. An outline of the steps:
(§1)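 Pre-emergence application to water surface of submerged pots (4 cm depth, alluvial soil) on sowing day, with 2.5-leaf rice transplanted; emulsion diluted to g/ha rates. Grown in greenhouse at 25–30 °C; 0–5 herbicidal/crop-effect score after three weeks.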

The next data set has as its system Scirpus juncoides. The description is as above. The following applies: Application herbicide amount 320 g/ha; Seventeenth Table. A digest of the protocol: as §1
Data set [1] has as its system Echinochloa oryzacola Vasing. The data set is described as above. To be noted: Application herbicide amount 320 g/ha; Seventeenth Table. A digest of the protocol:
as §1

The next data set deals with Digitaria ciliaris. The experiment in a line: Test Example 4: herbicidal effect by application to foliage (diluvial soil, plastic box). The following applies: foliage application, 320 g/ha. An outline of the steps: (§2)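 Plants were grown in sterilized diluvial soil in a greenhouse at 25-30° C for 14 days, then sprayed on stems and leaves with water-diluted emulsion formulation at set rates in g/ha. Weed control and crop injury were scored 3 weeks after treatment on a 0-5 herbicidal-ratio scale, from 0 (≤5%) to 5 (≥90%).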

The subject of a further data set is Alopecurus myosuroides. The data set is described as above. The following applies: foliage application, 320 g/ha. An outline of the steps: as §2
Data set [2] concerns Echinochloa crus-galli var. crus-galli. The description is as above. To be noted: foliage application, 320 g/ha. An outline of the steps:
as §2

The test system of another data set is Amaranthus retroflexus. The description is as above. The following applies: foliage application, 320 g/ha. An outline of the steps: as §2
A further data set concerns Galium spurium. The description is as above. The following applies: foliage application, 320 g/ha. An outline of the steps: as §2
The subject of another data set is Chenopodium album. Described as above. The following applies: foliage application, 320 g/ha. An outline of the steps:
as §2

Another data set deals with Veronica persica. Described as above. To be noted: foliage application, 320 g/ha. A digest of the protocol:
as §2

Another data set relates to Abutilon theophrasti. Described as above. The following applies: foliage application, 320 g/ha. A digest of the protocol:
as §2

Another data set relates to Lolium multiflorum Lam. The data set is described as above. The following applies: foliage application, 320 g/ha. A digest of the protocol:
as §2

A further data set has as its system Setaria viridis. The description is as above. To be noted: foliage application, 320 g/ha. A digest of the protocol:
as §2

The test system of another data set is Stellaria media. The description is as above. To be noted: foliage application, 320 g/ha. An outline of the steps:
as §2

The next data set relates to Avena fatua. The data set is described as above. To be noted: foliage application, 320 g/ha. A digest of the protocol:
as §2

The subject of the next data set is Apera spica-venti. Described as above. The following applies: foliage application, 320 g/ha. A digest of the protocol:
as §2

Data set [3] has as its system Beta vulgaris ssp. vulgaris. The experiment in a line: Test Example 4: effect on crop by application to foliage (diluvial soil, plastic box). To be noted: foliage application, 320 g/ha. A digest of the protocol: as §2
The test system of the next data set is Brassica campestris L. The description is as above. To be noted: foliage application, 320 g/ha. A digest of the protocol: as §2
Another data set deals with Glycine max. The description is as above. The following applies: foliage application, 320 g/ha. An outline of the steps: as §2
In a further data set the test system is Zea mays. The description is as above. To be noted: foliage application, 320 g/ha. A digest of the protocol:
as §2

For data set [4], the system named is directly sowed Oryza sativa. The description is as above. The following applies: foliage application, 320 g/ha. A digest of the protocol:
as §2

In another data set the test system is Triticum aestivum. Described as above. To be noted: foliage application, 320 g/ha. An outline of the steps: as §2

`Cn1nnnc1NC(=O)c1ccc(C(F)(F)F)n2c(CC[S+](C)[O-])nnc12` (stereo not drawn) [2-058]: the “C: Monochoria vaginalis (herbicidal effect grade)” value (from here on “C: Monochoria vaginalis”) with Monochoria vaginalis was 5 (Herbicidal ratio of 90% or more (almost completely withered)). In the data set with Scirpus juncoides, the “B: Scirpus juncoides (herbicidal effect grade)” value (“B: Scirpus juncoides” below) is 4 (Herbicidal ratio of 70% or more and less than 90%). Further, the “A: Echinochloa oryzicola Vasing. (herbicidal effect grade)” value in data set [1] is 4 (Herbicidal ratio of 70% or more and less than 90%). Also, the “F (Digitaria ciliaris) herbicidal effect grade” value with Digitaria ciliaris is on record as 5 (Herbicidal ratio of 90% or more (almost completely withered)). For the same compound, in the data set with Alopecurus myosuroides, the “J (Alopecurus myosuroides) herbicidal effect grade” value is 4 (Herbicidal ratio of 70% or more and less than 90%). In addition, the “H (Echinochloa crus-galli var. crus-galli) herbicidal effect grade” value in [2] is on record as 5 (Herbicidal ratio of 90% or more (almost completely withered)). Also, in the data set with Amaranthus retroflexus, the “N (Amaranthus retroflexus) herbicidal effect grade” value is on record as 5 (Herbicidal ratio of 90% or more (almost completely withered)). For the same compound, in the data set with Galium spurium, the “Q (Galium spurium) herbicidal effect grade” value is on record as 5 (Herbicidal ratio of 90% or more (almost completely withered)). In addition, the “O (Chenopodium album) herbicidal effect grade” value in the data set with Chenopodium album was 5 (Herbicidal ratio of 90% or more (almost completely withered)). Besides, the “R (Veronica persica) herbicidal effect grade” value in the data set on Veronica persica was 5 (Herbicidal ratio of 90% or more (almost completely withered)). Further, the “M (Abutilon theophrasti) herbicidal effect grade” value with Abutilon theophrasti is listed as 5 (Herbicidal ratio of 90% or more (almost completely withered)). For the same compound, in the data set on Lolium multiflorum Lam., the “K (Lolium multiflorum Lam.) herbicidal effect grade” value is 4 (Herbicidal ratio of 70% or more and less than 90%). The “G (Setaria viridis) herbicidal effect grade” value with Setaria viridis is 5 (Herbicidal ratio of 90% or more (almost completely withered)). The “P (Stellaria media) herbicidal effect grade” value in the data set with Stellaria media is 5 (Herbicidal ratio of 90% or more (almost completely withered)). Besides, the “I (Avena fatua) herbicidal effect grade” value with Avena fatua is 5 (Herbicidal ratio of 90% or more (almost completely withered)). Moreover, the “L (Apera spica-venti.) herbicidal effect grade” value in the data set on Apera spica-venti. was 4 (Herbicidal ratio of 70% or more and less than 90%). The “f (Beta vulgaris ssp. vulgaris) effect on crop grade” value in data set [3] was 5 (Herbicidal ratio of 90% or more (almost completely withered)). Further, the “g (Brassica campestris L.) effect on crop grade” value in the data set on Brassica campestris L. is listed as 5 (Herbicidal ratio of 90% or more (almost completely withered)). Moreover, the “c (Glycine max) effect on crop grade” value in the data set with Glycine max was 3 (Herbicidal ratio of 40% or more and less than 70%). The “b (Zea mays) effect on crop grade” value with Zea mays is listed as 5 (Herbicidal ratio of 90% or more (almost completely withered)). Besides, the “d (directly sowed Oryza sativa) effect on crop grade” value in [4] is recorded as 5 (Herbicidal ratio of 90% or more (almost completely withered)). Moreover, in the data set on Triticum aestivum, the “e (Triticum aestivum) effect on crop grade” value (“e (Triticum aestivum) effect” below) was 5 (Herbicidal ratio of 90% or more (almost completely withered)).
Take `Cn1nnnc1NC(=O)c1ccc(C(F)(F)F)n2c(C[S+]([O-])CC(F)(F)F)nnc12` (stereo not drawn) [2-035]: the “C: Monochoria vaginalis” value in the data set with Monochoria vaginalis was 3 (Herbicidal ratio of 40% or more and less than 70%). In the data set on Scirpus juncoides, the “B: Scirpus juncoides” value was 3 (Herbicidal ratio of 40% or more and less than 70%). Besides, the “A: Echinochloa oryzicola Vasing. (herbicidal effect grade)” value in [1] was 4 (Herbicidal ratio of 70% or more and less than 90%). Besides, the “F (Digitaria ciliaris) herbicidal effect grade” value with Digitaria ciliaris is listed as 5 (Herbicidal ratio of 90% or more (almost completely withered)). The “J (Alopecurus myosuroides) herbicidal effect grade” value in the data set on Alopecurus myosuroides was 3 (Herbicidal ratio of 40% or more and less than 70%). Besides, the “H (Echinochloa crus-galli var. crus-galli) herbicidal effect grade” value in data set [2] is given as 5 (Herbicidal ratio of 90% or more (almost completely withered)). In addition, the “N (Amaranthus retroflexus) herbicidal effect grade” value in the data set with Amaranthus retroflexus is on record as 5 (Herbicidal ratio of 90% or more (almost completely withered)). Besides, the “Q (Galium spurium) herbicidal effect grade” value with Galium spurium was 2 (Herbicidal ratio of 20% or more and less than 40%). The “O (Chenopodium album) herbicidal effect grade” value in the data set on Chenopodium album is on record as 5 (Herbicidal ratio of 90% or more (almost completely withered)). In addition, the “R (Veronica persica) herbicidal effect grade” value in the data set with Veronica persica is 5 (Herbicidal ratio of 90% or more (almost completely withered)). Moreover, in the data set on Abutilon theophrasti, the “M (Abutilon theophrasti) herbicidal effect grade” value is 5 (Herbicidal ratio of 90% or more (almost completely withered)). The “K (Lolium multiflorum Lam.) herbicidal effect grade” value in the data set on Lolium multiflorum Lam. was 4 (Herbicidal ratio of 70% or more and less than 90%). In the data set with Setaria viridis, the “G (Setaria viridis) herbicidal effect grade” value is on record as 5 (Herbicidal ratio of 90% or more (almost completely withered)). In addition, the “P (Stellaria media) herbicidal effect grade” value with Stellaria media is 5 (Herbicidal ratio of 90% or more (almost completely withered)). Moreover, the “I (Avena fatua) herbicidal effect grade” value with Avena fatua was 4 (Herbicidal ratio of 70% or more and less than 90%). The “L (Apera spica-venti.) herbicidal effect grade” value in the data set on Apera spica-venti. is 4 (Herbicidal ratio of 70% or more and less than 90%). Besides, the “f (Beta vulgaris ssp. vulgaris) effect on crop grade” value in data set [3] was 5 (Herbicidal ratio of 90% or more (almost completely withered)). The “g (Brassica campestris L.) effect on crop grade” value with Brassica campestris L. is recorded as 5 (Herbicidal ratio of 90% or more (almost completely withered)). Besides, the “c (Glycine max) effect on crop grade” value in the data set with Glycine max is 2 (Herbicidal ratio of 20% or more and less than 40%). Besides, the “b (Zea mays) effect on crop grade” value in the data set with Zea mays was 5 (Herbicidal ratio of 90% or more (almost completely withered)). For the same compound, the “d (directly sowed Oryza sativa) effect on crop grade” value in [4] was 4 (Herbicidal ratio of 70% or more and less than 90%). In the data set with Triticum aestivum, the “e (Triticum aestivum) effect” value was 4 (Herbicidal ratio of 70% or more and less than 90%).
Consider `CCS(=O)(=O)c1nnc2c(C(=O)Nc3nnnn3C)ccc(C(F)(F)F)n12` [2-038], for which the “C: Monochoria vaginalis” value with Monochoria vaginalis is listed as 5 (Herbicidal ratio of 90% or more (almost completely withered)). Moreover, the “B: Scirpus juncoides” value in the data set with Scirpus juncoides is given as 5 (Herbicidal ratio of 90% or more (almost completely withered)). In addition, the “A: Echinochloa oryzicola Vasing. (herbicidal effect grade)” value in [1] is recorded as 5 (Herbicidal ratio of 90% or more (almost completely withered)). For the same compound, the “F (Digitaria ciliaris) herbicidal effect grade” value with Digitaria ciliaris is on record as 5 (Herbicidal ratio of 90% or more (almost completely withered)). For the same compound, the “J (Alopecurus myosuroides) herbicidal effect grade” value in the data set on Alopecurus myosuroides is reported as 5 (Herbicidal ratio of 90% or more (almost completely withered)). Also, in data set [2], the “H (Echinochloa crus-galli var. crus-galli) herbicidal effect grade” value is 5 (Herbicidal ratio of 90% or more (almost completely withered)). Also, in the data set with Amaranthus retroflexus, the “N (Amaranthus retroflexus) herbicidal effect grade” value was 5 (Herbicidal ratio of 90% or more (almost completely withered)). For the same compound, in the data set with Galium spurium, the “Q (Galium spurium) herbicidal effect grade” value is 5 (Herbicidal ratio of 90% or more (almost completely withered)). Further, in the data set on Chenopodium album, the “O (Chenopodium album) herbicidal effect grade” value is reported as 5 (Herbicidal ratio of 90% or more (almost completely withered)). Also, the “R (Veronica persica) herbicidal effect grade” value with Veronica persica is 5 (Herbicidal ratio of 90% or more (almost completely withered)). The “M (Abutilon theophrasti) herbicidal effect grade” value in the data set on Abutilon theophrasti is 5 (Herbicidal ratio of 90% or more (almost completely withered)). Further, the “K (Lolium multiflorum Lam.) herbicidal effect grade” value in the data set on Lolium multiflorum Lam. is 5 (Herbicidal ratio of 90% or more (almost completely withered)). Moreover, the “G (Setaria viridis) herbicidal effect grade” value with Setaria viridis was 5 (Herbicidal ratio of 90% or more (almost completely withered)). The “P (Stellaria media) herbicidal effect grade” value in the data set on Stellaria media was 5 (Herbicidal ratio of 90% or more (almost completely withered)). Also, the “I (Avena fatua) herbicidal effect grade” value in the data set with Avena fatua is listed as 5 (Herbicidal ratio of 90% or more (almost completely withered)). Further, the “L (Apera spica-venti.) herbicidal effect grade” value with Apera spica-venti. was 5 (Herbicidal ratio of 90% or more (almost completely withered)). Further, the “f (Beta vulgaris ssp. vulgaris) effect on crop grade” value in data set [3] is recorded as 5 (Herbicidal ratio of 90% or more (almost completely withered)). The “g (Brassica campestris L.) effect on crop grade” value with Brassica campestris L. was 5 (Herbicidal ratio of 90% or more (almost completely withered)). Also, the “c (Glycine max) effect on crop grade” value with Glycine max is given as 5 (Herbicidal ratio of 90% or more (almost completely withered)). Moreover, the “b (Zea mays) effect on crop grade” value in the data set with Zea mays is 5 (Herbicidal ratio of 90% or more (almost completely withered)). Further, the “d (directly sowed Oryza sativa) effect on crop grade” value in data set [4] is given as 5 (Herbicidal ratio of 90% or more (almost completely withered)). In addition, the “e (Triticum aestivum) effect” value in the data set with Triticum aestivum is 5 (Herbicidal ratio of 90% or more (almost completely withered)).
